Legend:
Assay in all cases: relative viability (nuclei count vs DMSO), 5 days (fraction); higher = more cells survive
[1] = compound: CC1=CC=C(C=C1)C(=O)CN2C3=C(CCCC3)SC2=N [Pifithrin_alpha] + CC(=O)Nc1cccc(-n2c(=O)n(C3CC3)c(=O)c3c(Nc4ccc(I)cc4F)n(C)c(=O)c(C)c32)c1 [Trametinib] (partner 0.02 µM)
In short: (§1)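 After 5 days of treatment, lung cancer cells in 1536-well plates were fixed and stained in a single step (final 0.05% Triton X-100, 1% formaldehyde, 1 ug/ml Hoechst) and their nuclei counted on 4× images. Treatment had been applied by pin tool the day after seeding as one drug alone or as a fixed anchor-drug dose with five library-drug doses (not always all listed) in √10 steps. Relative viability is the nuclei count of treated wells divided by that of vehicle wells, and values are medians of duplicate plates.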

[2] = compound: CC1=CC=C(C=C1)C(=O)CN2C3=C(CCCC3)SC2=N [Pifithrin_alpha] + Nc1nc2[nH]cc(CCc3ccc(C(=O)N[C@@H](CCC(=O)O)C(=O)O)cc3)c2c(=O)[nH]1 [Pemetrexed] (partner 0.2 µM)
In short: as §1

Bemcentinib + Alpelisib = compound: Nc1nc(Nc2ccc3c(c2)CC[C@@H](N2CCCC2)CC3)nn1-c1cc2c(nn1)-c1ccccc1CCC2 [Bemcentinib] + Cc1nc(NC(=O)N2CCC[C@H]2C(N)=O)sc1-c1ccnc(C(C)(C)C(F)(F)F)c1 [Alpelisib] (partner 2 µM)
In short: as §1

Bemcentinib + Decitabine = compound: Nc1nc(Nc2ccc3c(c2)CC[C@@H](N2CCCC2)CC3)nn1-c1cc2c(nn1)-c1ccccc1CCC2 [Bemcentinib] + Nc1ncn([C@H]2C[C@H](O)[C@@H](CO)O2)c(=O)n1 [Decitabine] (partner 2 µM)
In short: as §1

Row | Cell Line | relative viability ([1]; first compound 1 µM) | relative viability ([1]; first compound 3.162 µM) | relative viability ([1]; first compound 10 µM) | relative viability ([1]; first compound 100 µM) | relative viability ([2]; first compound 1 µM) | relative viability ([2]; first compound 3.162 µM) | relative viability ([2]; first compound 10 µM) | relative viability ([2]; first compound 100 µM) | relative viability (Bemcentinib + Alpelisib; first compound 0.04 µM) | relative viability (Bemcentinib + Alpelisib; first compound 0.1265 µM) | relative viability (Bemcentinib + Alpelisib; first compound 0.4 µM) | relative viability (Bemcentinib + Alpelisib; first compound 1.265 µM) | relative viability (Bemcentinib + Alpelisib; first compound 4 µM) | relative viability (Bemcentinib + Decitabine; first compound 0.04 µM) | relative viability (Bemcentinib + Decitabine; first compound 0.1265 µM) | relative viability (Bemcentinib + Decitabine; first compound 0.4 µM) | relative viability (Bemcentinib + Decitabine; first compound 1.265 µM) | relative viability (Bemcentinib + Decitabine; first compound 4 µM) | relative viability ([1]; first compound 31.62 µM) | relative viability ([2]; first compound 31.62 µM)
1 | LU99A | 0.458 | 0.601 | 0.573 | 0.575 | 0.183 | 0.243 | 0.19 | 0.172 | 0.453 | 0.584 | 0.591 | 0.542 | 0.569 | 0.918 | 0.882 | 0.899 | 0.975 | 0.987 |  | 
2 | NCI-H1437 | 0.532 | 0.491 | 0.355 | 0.264 | 0.337 | 0.313 | 0.309 | 0.253 | 0.961 | 1.03 | 1.16 | 1.01 | 1.01 | 0.58 | 0.602 | 0.558 | 0.584 | 0.571 | 0.336 | 0.258
3 | NCI-H460 | 0.0943 | 0.075 | 0.155 | 0.103 | 0.0605 | 0.0587 | 0.0622 | 0.0898 | 0.595 | 0.556 | 0.487 | 0.602 | 0.584 | 0.479 | 0.595 | 0.605 | 0.483 | 0.5 | 0.0707 | 0.0636
4 | NCI-H1395 |  | 1.03 | 1.11 | 1.19 |  | 0.897 | 0.907 | 0.908 | 1 | 1.26 | 1.12 | 1.03 | 1.29 |  | 0.683 | 0.757 | 0.737 | 0.745 |  | 
5 | NCI-H2085 | 0.452 | 0.444 | 0.461 | 0.445 | 0.945 | 0.819 | 0.888 | 0.713 | 0.905 | 1.08 | 1.02 | 0.983 | 0.967 | 0.539 | 0.583 | 0.498 | 0.551 | 0.554 | 0.463 | 0.835
6 | NCI-H1703 |  |  |  |  |  |  |  |  | 0.29 | 0.382 | 0.39 | 0.312 | 0.426 |  |  |  |  |  |  | 
7 | HCC-366 | 0.249 | 0.248 | 0.238 | 0.187 | 0.158 | 0.154 | 0.139 | 0.133 | 0.474 | 0.408 | 0.572 | 0.378 | 0.417 | 0.335 | 0.362 | 0.395 | 0.369 | 0.341 |  | 
8 | NCI-H1648 | 0.487 | 0.332 | 0.453 | 0.422 | 0.805 | 0.49 | 0.924 | 0.671 |  |  |  |  |  | 0.411 | 0.413 | 0.483 | 0.569 | 0.43 | 0.48 | 0.655
9 | NCI-H322M | 0.436 | 0.307 | 0.514 | 0.539 | 0.635 | 0.599 | 0.605 | 0.511 | 0.897 | 0.864 | 0.855 | 0.85 | 0.937 | 0.686 | 0.731 | 0.716 | 0.841 | 0.704 | 0.509 | 0.578

— the supplement of paper PMC10307832
